Assay results published in PubChem BioAssay (NCI).
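Dose response: 5 concentrations. Exposure: 48 h. Format: 96-well plates. Endpoint: linear interpolation; highest concentration if not reached. Here, GI50 denotes the concentration required for 50% inhibition of growth. TGI: total growth inhibition.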

Experiments:
Assay in all cases: inhibition of tumour cell growth, NCI panel, 48 h
HL-60(TB) leukemia = system: HL-60(TB) leukemia
SW-620 colon = system: SW-620 colon
SNB-75 CNS = system: SNB-75 CNS
MALME-3M melanoma = system: MALME-3M melanoma
M14 melanoma = system: M14 melanoma
SK-MEL-28 melanoma = system: SK-MEL-28 melanoma
SK-MEL-5 melanoma = system: SK-MEL-5 melanoma
SNB-19 CNS = system: SNB-19 CNS
UO-31 renal = system: UO-31 renal
NCI-H226 lung = system: NCI-H226 lung

Compound	GI50 (HL-60(TB) leukemia) [µM]	TGI (HL-60(TB) leukemia) [µM]	GI50 (SW-620 colon) [µM]	TGI (SW-620 colon) [µM]	GI50 (SNB-75 CNS) [µM]	TGI (SNB-75 CNS) [µM]	GI50 (MALME-3M melanoma) [µM]	TGI (MALME-3M melanoma) [µM]	GI50 (M14 melanoma) [µM]	TGI (M14 melanoma) [µM]	GI50 (SK-MEL-28 melanoma) [µM]	TGI (SK-MEL-28 melanoma) [µM]	GI50 (SK-MEL-5 melanoma) [µM]	TGI (SK-MEL-5 melanoma) [µM]	GI50 (SNB-19 CNS) [µM]	TGI (SNB-19 CNS) [µM]	GI50 (UO-31 renal) [µM]	TGI (UO-31 renal) [µM]	GI50 (NCI-H226 lung) [µM]	TGI (NCI-H226 lung) [µM]
Cc1c(-c2ccc(C3CCCCC3)cc2)nc2ccc(F)cc2c1C(=O)O	0.335	> 100	0.228	> 100	12.2	> 100	> 51.4	> 100	0.788	> 100	14.5	> 100	0.0799	> 100	0.2	> 100	0.721	> 100	3.08	> 100
Cc1c2ccn(O)cc2c(C)c2c1nc1ccccc12	–	38.3	–	> 100	–	21.3	–	> 41.8	–	> 100	–	> 100	–	> 100	–	30.8	–	27.5	–	29
O=C(Nc1ccc(Cc2ccccc2)cc1)Nc1nn(C(=O)Nc2ccc(Cc3ccccc3)cc2)c2ccccc12	> 100	> 100	> 100	> 100	33.8	> 100	> 100	> 100	> 100	> 100	> 100	> 100	> 100	> 100	> 100	> 100	> 100	> 100	> 100	> 100
COC(=O)c1ccccc1N(C(=O)c1ccccc1)c1ccccc1C	–	43.1	–	> 100	–	> 100	–	> 100	–	73.1	–	> 100	–	> 100	–	> 100	–	> 100	–	> 100
CCCCOC(=O)c1ccc(N)cc1	52.7	> 100	64	> 100	41	> 100	> 100	> 100	41.1	> 100	> 100	> 100	27.8	> 100	75.2	> 100	8.74	> 100	63.6	> 100
C=C(CO)CC(O)c1cc(OC)ccc1OC (stereo unspecified)	–	> 100	–	> 100	–	> 100	–	> 100	–	> 100	–	> 100	–	> 100	–	> 100	–	> 100	–	> 100
NC(N)=NCC1CCCCCCN1 (stereo unspecified)	–	> 100	–	> 100	–	> 100	–	> 100	–	> 100	–	> 100	–	> 100	–	> 100	–	> 100	–	> 100
O=C(O)[C@H](Cc1c[nH]c2ccccc12)N1C(=O)c2ccccc2C1=O	> 100	> 100	–	> 100	–	> 100	–	> 100	–	> 100	–	> 100	–	> 100	–	> 100	–	> 100	–	> 100
N#CC(/C(CCC(=O)Nc1ccc(Cl)cc1)=N/NC(=O)c1cc2ccccc2cc1O)c1ccccc1 (stereo unspecified)	–	33	–	> 100	–	> 100	–	> 100	–	> 100	–	> 100	–	40.6	–	> 100	–	> 100	–	> 100
CCOC(=O)C1SC(=Nc2ccc(OC)c(OC)c2)N=C1C (stereo unspecified)	–	49.1	–	> 100	–	71.1	–	83.4	–	> 100	–	> 100	–	37.2	–	> 100	–	86.7	–	> 100
O=C/C1=C/C2=Cc3ccccc3C=C(/C=C(/C=O)C1)C2	–	> 100	–	> 100	–	80	–	> 100	–	> 100	–	> 100	–	> 100	–	> 100	–	> 100	–	> 100
O=C1/C(=C/c2ccccc2)CN(C(=O)C(Cl)Cl)C/C1=C\c1ccccc1	0.36	2.04	0.135	0.44	1.09	2.31	0.996	3.06	0.622	2.15	0.68	1.81	0.698	1.94	0.495	1.78	1.29	2.62	1.22	5.17
COC(OC)c1cc2c(cc1C=O)OCO2	–	> 100	–	> 100	–	54.7	–	96.5	–	> 100	–	> 100	–	> 100	–	> 100	–	> 100	–	> 100
CC(=O)O[C@H]([C@H](OC(C)=O)[C@H](C)OC(C)=O)[C@@H](/C=C/[C@@H]1CC=CC(=O)O1)OC(C)=O	> 100	> 100	40	> 100	30.2	69.6	> 100	> 100	42.6	> 100	40.4	> 100	44.5	> 100	59.5	> 100	20.1	39.9	> 100	> 100
